One may read the IC50 as the midpoint of a concentration-inhibition curve.

The structures appear in SMILES notation. Like-named read-outs stand apart in the source and are kept apart here.

Data set [1] relates to mature male hooded rats (Long-Evans strain). Put plainly: animal model of anxiety based on the Geller-Seifter conflict test. Format: in vivo. The following applies: for Total Punished Responses, Test: four rats. The source says: The compounds of the present invention are new chemical substances which are also useful as pharmaceutical agents for the treatment of anxiety, i.e., anxiolytic agents. The antianxiety activity of a representative compound showing such activity for the compounds of the Formula I of the present invention is established by the use of an animal model of anxiety based on the Geller-Seifter conflict test described in Psychopharmacologia 1:482 (1960). Particularly the test follows initial shaping of response, an experimental conflict is induced, with animals trained until stable performance is established. Each animal serves as his own control. A description of the test is as follows:
Subjects: Mature male hooded rats (Long-Evans strain) 300-350 g body weight.
Apparatus: The experimental chamber consists of an inner test compartment with a lever mounted in one wall, a grid floor, an automatic feeding device, and a speaker. This chamber is enclosed by a sound insulated cubicle. Shock is provided by a LVE Model 1531 Constant Current SHocker. White (masking) noise is supplied by a LVE Model 1524 Noise Generator. A tone is produced by a LVE Model 1664 4.5 KC Tone Generator. All events and recordings are automatic and are programmed with appropriate electric timers and relay devices.
Procedure: Variable interval (VI)=two-minute; trial periods=four; shock=0.6 to 0.8 ma; food reward=Borden's Sweetened Condensed Milk diluted two parts water to one part milk; animals are deprived to 70% of their free feeding weight and are 23 hours starved; session length=one hour and 12 minutes.
The conflict is induced in the following manner: hungry rats are conditioned to press a lever to obtain a food reward. Reinforcement is contingent upon a lever press and occurs at variable intervals on the average of once every two minutes--VI two-minute (See Ferster; C. B., and Skinner, B. F., "In Schedules of Reinforcement, " Appleton-Century-Crofts,New York, 1957).
Spaced at regular intervals throughout the experimental session are four three-minute periods. During these trial periods a tone signals that every lever press will be food reinforced (CRF) and simultaneously punished by a painful electric foot shock.
In other words, food-deprived rats are trained to depress a lever in order to obtain food (sweetened condensed milk). Normally, the rats perform on a variable interval (VI) schedule on which a lever press results in food delivery on the average of once every two minutes; the time between successive periods of food availability is varied continuously such that animals respond at low but steady rates to obtain occasional access to food. After animals perform for 12 minutes on this schedule the house lights are extinguished and two small stimulus lights are illuminated, signaling the availability of food for each depression of the lever during a three minute trial period. During the trial, each depression of the lever also results in the delivery of mild electric shock (0.8 ma, 0.25 second duration) delivered through the grid floor (punishment). Thus, an approach-avoidance conflict is established with associated anxiety: food is readily available for each response, but each respone is punished (see Miller, N. E., "Some Recent Studies of Conflict Behavior and Drugs," Am. Pharmacologist, 16: 12, 1961). The scheduled used in our test employed four successive trials, each preceded by a 12-minute period during which the food-reinforced VI was in effect.
During sessions in which no drug is administered, rats normally respond at steady rates on the VI component but emit very few responses during the punished trial period.
The total number of punished responses made by the four subjects in the pretest and test sessions for the noted compound are as follows.
The pretest responses are cummulative responses emitted during the three minute tests from a previous nondrug session. […]

The next data set has as its system Swiss-Webster male mice. Put plainly: Mouse Activity and Screen Test Procedure (MAST). The conditions noted are these: ip, 1 h, intraperitoneal, one hour prior to testing, active = rating A at 100 mg/kg or less, read-out: Dose at which an overall dose rating of A was obtained. Format: in vivo. The source says: The compounds of the present invention are new chemical substances which are useful as pharmaceutical agents for the treatment of psychoses such as, for example, schizophrenia. The antipsychotic activity of representative compounds of the invention was established by the Mouse Activity and Screen Test Procedure (MAST) described below:
ANIMALS: Nine unfasted Swiss-Webster male mice (Buckberg Labs) weighing 20-30 g are equally divided into three groups for each drug dose to be tested. That is, data for each dose level was generated by three separate groups of three mice each.
DRUGS: A minimum of three dose levels (10, 30, and 100 mg/kg) are tested for each drug. Treatments are administered intraperitoneally one hour prior to testing. All dosages are calculated as parent compound and given in volumes of […]. Compounds are dissolved or suspended in 0.2% Methocel. Control animals are injected with Methocel.
TESTING: A two-part testing procedure is started one hour postinjection. First, the screen test is performed (see Pharmac Biochem Behav 6, 351-353, 1977). Briefly, this test consists of placing mice on individual wire screens which are then rotated 180° at the start of a 60-second observation period. The number of mice falling off the inverted screen is recorded.
Immediately following the screen test, the final phase of testing is initiated by placing each group of three mice in one actophotometer (Life Sciences, 22, 1067-1076, 1978). The actophotometer consists of a cylindrical chamber whose center is occupied by another cylinder which contains the illumination for six photocells located on the perimeter of the chamber. Six light-beam interruptions equal one count. Locomotor activity is recorded by computer at ten-minute intervals for 60 minutes.
DATA: The data obtained from the screen test are expressed as percent of mice falling off the screen. Data derived from locomotor activity of drug-treated mice are compared to the activity of vehicle-treated animals and are expressed as percent inhibition of spontaneous locomotion. All percentages reported for inhibition of locomotion are based upon data accumulated for one hour. Both phases of testing are graded: A=60-100%; C=31-59%; and N=0-30%. An overall dose rating is obtained by the following criteria. […]
______________________________________
Inhibition of Screen Test Dose
Locomotion rating with Failure Rating
Utilizing this procedure, an overall dose rating of A was obtained for the noted compounds at the indicated dose as reported in Table 1.

The target of another data set is dopamine receptors (Rattus norvegicus, UniProt P61169). Put plainly: [3H] haloperidol binding assay (HRBA). Details: species or system Long-Evans hooded rats. The following applies: displacement of [3H] haloperidol (0.6 nM), rat striatal membranes, pH 7.6, 25° C., 40 minutes. The method, then: [^3 H] Haloperidol Binding Assay. The relative affinities of compounds for dopamine receptors were evaluated on the basis of their ability to displace [^3 H] haloperidol from striatal membranes prepared from Long-Evans hooded rats. Rats were decapitated; the brains were removed, and the corpus striata were dissected. The corpus striata were homogenized in 40 volumes of […] Tris buffer (pH 7.6) and centrifuged. Pellets were rehomogenized in 50 volumes of the same buffer and used for the binding assay. Incubations were carried out in 10 ml of […] Tris-HCl buffer (pH 7.6) containing 2 mg/ml of original wet tissue weight of homogenate, 100 μl of test agent or solvent, and 0.6 nM of [^3 H] haloperidol. Nonspecific binding was determined in the presence of 0.1 μM (+)-butaclamol. Samples were incubated in reciprocating water bath at 25° C. for 40 minutes. Incubation was terminated by rapid filtration under reduced pressure through glass fiber filters (Whatman GF/B). The filters were rinsed three times with 10 ml of Tris-HCl buffer. The filters were placed in 10 ml of scintillation coctail (Beckman Ready-Solv HP) and shaken for one hour. Radioactivity retained on the filter was determined by liquid scintillation spectrophotometry. Compounds were initially evaluated at 10 nM. IC50 s when determined were calculated from a nonlinear computer curve, fit on the data from four or more concentrations, each done in triplicate.
A general note: Loss of bound radioactivity is the signal in a displacement assay; it reports binding, not function.

dopamine receptors, sequence (P61169 whole entry): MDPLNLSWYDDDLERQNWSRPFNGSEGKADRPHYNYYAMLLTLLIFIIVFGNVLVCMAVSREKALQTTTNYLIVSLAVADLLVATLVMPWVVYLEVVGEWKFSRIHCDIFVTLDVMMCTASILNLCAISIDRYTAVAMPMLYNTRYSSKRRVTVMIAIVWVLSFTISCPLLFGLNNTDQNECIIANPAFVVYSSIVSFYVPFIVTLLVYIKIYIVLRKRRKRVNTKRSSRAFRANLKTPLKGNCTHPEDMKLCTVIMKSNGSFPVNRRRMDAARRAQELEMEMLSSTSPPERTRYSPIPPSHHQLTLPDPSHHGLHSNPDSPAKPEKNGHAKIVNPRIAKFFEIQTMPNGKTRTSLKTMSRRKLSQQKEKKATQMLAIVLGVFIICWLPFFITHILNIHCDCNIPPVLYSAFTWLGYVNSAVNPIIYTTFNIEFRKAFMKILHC

As to `O=c1ccc2ccc(OCCCN3CCN(c4ncccn4)CC3)cc2o1` [7-[3-[4-(2-pyrimidinyl)-1-piperazinyl]propoxy]-2H-1-benzopyran-2-one], the “responding during trial periods” value in data set [1] (27.5 mg/kg PO (no increase)) was “not at 27.5 mg/kg PO”; in data set [1] (55 and 80 mg/kg PO), “increased responding during trial periods”. The “Total Punished Responses, Test” value is reported as 44 in data set [1] (27.5 mg/kg PO, Pretest (nondrug session) 39); 147 in data set [1] (55 mg/kg PO, Pretest (nondrug session) 78); 77 in data set [1] (80 mg/kg PO, Pretest (nondrug session) 23). Further, the “rats with increases in punished responding” value is “four of four rats” in data set [1] (80 mg/kg) and “three of four rats” in data set [1] (55). Besides, the gross sedation entry in data set [1] (55 and 80 mg/kg PO) is recorded as “notable absence of gross sedation”. Further, the “responding during the VI component” value in data set [1] (55 and 80 mg/kg PO, unpunished responding) is “not accompanied by decreased responding during the VI component”.

`CSc1ccc2c(c1)N(CCC1CCCCN1C)c1ccccc1S2` (stereo not drawn) [Thioridazine, reference compound]: the minimal effective dose in the data set with Swiss-Webster male mice is 10 mg/kg. Regarding `O=c1ccc2ccc(OCCCN3CCN(c4ccccc4)CC3)cc2o1` [drawing 15], the minimal effective dose with Swiss-Webster male mice stood at 3 mg/kg. On to `Cc1cc(=O)oc2cc(OCCCN3CCN(c4ccccc4)CC3)ccc12` [drawing 16], for which, in the data set with Swiss-Webster male mice, the minimal effective dose was determined as 1 mg/kg. Take `O=c1ccc2ccc(OCCCN3CCN(c4ncccn4)CC3)cc2o1` [drawing 17]: the minimal effective dose in the data set with Swiss-Webster male mice was 3 mg/kg. As to `O=c1ccc2ccc(OCCCN3CC=C(c4ccccc4)CC3)cc2o1` [drawing 18], in the data set with Swiss-Webster male mice, the minimal effective dose is 1 mg/kg. In the case of `O=c1ccc2ccc(OCCCN3CCN(c4ccccc4)CC3)cc2o1` [drawing 20], the IC50 on dopamine receptors (read-out: IC50) amounted to 15 nM. `Cc1cc(=O)oc2cc(OCCCN3CCN(c4ccccc4)CC3)ccc12` [drawing 21] gave an IC50 at dopamine receptors of 50 nM. As for `O=c1ccc2ccc(OCCCN3CCN(c4ncccn4)CC3)cc2o1` [drawing 22], the concentration for half-maximal inhibition (IC50) on dopamine receptors (read-out: IC50) was 930 nM. `O=c1ccc2ccc(OCCCN3CC=C(c4ccccc4)CC3)cc2o1` [drawing 23]: on dopamine receptors, the IC50 was 16 nM.

The values above are taken from patent publication US4701456A, “Aminoalkoxybenzopyranones as antipsychotic and anxiolytic agents” (Warner-Lambert Company, priority 1985, dated 1987).
